The target of one assay is Factor XIa (Homo sapiens, UniProt P03951). As to the kind of experiment: Factor XIa inhibition assay (FLINT) utilizing a fluorophore-quencher pair peptide substrate 5Fam-[…]-K5Tamra. Type of assay: biochemical. Conditions: kinetic (KIN) reads, read-out: FXIa KIN Inh IC50. Put shortly: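 FXIa was preincubated with compound for 30 min at room temperature in Tris pH 7.5 buffer containing CaCl2, BSA and CHAPS, then reacted with 15 μM quenched 5Fam/Tamra peptide substrate. Fluorescence (485/520 nm) was read kinetically every 5 min for 30 min.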

The target in a further assay is human plasma kallikrein (Homo sapiens, UniProt P03952). As to the kind of experiment: Kallikrein inhibition assay (FLINT) utilizing a quenched AMC peptide substrate Z-Gly-Pro-Arg-AMC. Type of assay: biochemical. Conditions: kinetic (KIN) reads, read-out: Kallikrein KIN Inh IC50. Summed up:
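Human plasma kallikrein (2 nM final) pre-incubated 30 min with compound (11-point 3-fold series, top 1 μM, 2% DMSO), then 50 μM Z-Gly-Pro-Arg-AMC added. Buffer 50 mM Tris pH 7.5, 100 mM NaCl, 5 mM CaCl2, BSA, CHAPS. AMC fluorescence (340/440 nm) read kinetically over 30 min at room temperature, IC50 by 4-parameter logistic fit.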

Read-outs that look alike come from different tables or passages of the source. Some results are limits rather than exact numbers.

For orientation: IC50 means the concentration at which inhibition is half-maximal.

Sequence of Factor XIa (P03951 388-625 limits assumed): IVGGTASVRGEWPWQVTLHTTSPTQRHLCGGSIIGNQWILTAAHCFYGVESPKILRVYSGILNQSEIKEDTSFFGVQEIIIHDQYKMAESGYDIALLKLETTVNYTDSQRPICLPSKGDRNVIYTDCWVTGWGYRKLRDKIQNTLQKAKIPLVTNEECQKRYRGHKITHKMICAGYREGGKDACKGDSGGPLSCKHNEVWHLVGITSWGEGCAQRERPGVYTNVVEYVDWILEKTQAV
Sequence of Factor XIa (P03951 19-387 partner limits assumed): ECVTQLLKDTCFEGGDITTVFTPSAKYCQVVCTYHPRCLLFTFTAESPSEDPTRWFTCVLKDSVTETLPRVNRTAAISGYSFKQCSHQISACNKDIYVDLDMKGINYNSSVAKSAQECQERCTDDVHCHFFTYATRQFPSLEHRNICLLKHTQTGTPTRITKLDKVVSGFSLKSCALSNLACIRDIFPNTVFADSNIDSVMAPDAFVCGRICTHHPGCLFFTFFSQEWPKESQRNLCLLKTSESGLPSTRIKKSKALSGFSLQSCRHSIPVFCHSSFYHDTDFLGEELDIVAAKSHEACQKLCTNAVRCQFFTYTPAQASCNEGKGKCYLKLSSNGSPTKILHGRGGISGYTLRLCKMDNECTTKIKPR
Sequence of human plasma kallikrein (P03952 391-638 limits assumed): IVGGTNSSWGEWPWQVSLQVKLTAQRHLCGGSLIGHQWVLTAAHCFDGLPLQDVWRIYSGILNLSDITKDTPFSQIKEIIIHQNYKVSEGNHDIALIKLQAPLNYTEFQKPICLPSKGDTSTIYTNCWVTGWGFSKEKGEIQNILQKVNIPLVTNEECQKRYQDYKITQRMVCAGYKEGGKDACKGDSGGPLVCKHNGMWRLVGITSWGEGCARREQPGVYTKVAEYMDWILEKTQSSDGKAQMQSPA
Sequence of human plasma kallikrein (P03952 20-390 partner limits assumed): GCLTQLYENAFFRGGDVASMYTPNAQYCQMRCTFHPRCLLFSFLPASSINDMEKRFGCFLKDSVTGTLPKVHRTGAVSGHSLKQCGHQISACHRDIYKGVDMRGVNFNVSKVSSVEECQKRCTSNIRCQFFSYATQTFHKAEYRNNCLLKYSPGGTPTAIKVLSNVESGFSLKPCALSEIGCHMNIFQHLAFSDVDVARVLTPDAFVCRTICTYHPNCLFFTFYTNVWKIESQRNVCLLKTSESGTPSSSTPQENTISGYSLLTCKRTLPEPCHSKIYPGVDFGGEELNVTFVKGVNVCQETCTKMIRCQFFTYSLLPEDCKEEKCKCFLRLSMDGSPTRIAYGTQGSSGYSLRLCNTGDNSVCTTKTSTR

`C[C@H]1C[C@@H](c2ncc(-c3cnc(N)c(F)c3)[nH]2)n2c1cc(-c1c(-n3cnnn3)ccc(Cl)c1F)cc2=O` (relative stereo) [Example 61, (1*S,3*S)-3-(5-(6-Amino-5-fluoropyridin-3-yl)-1H-imidazol-2-yl)-7-(3-chloro-2-fluoro-6-(1H-tetrazol-1-yl)phenyl)-1-methyl-2,3-dihydroindolizin-5(1H)-one]: the IC50 on Factor XIa (unit μM) and on human plasma kallikrein (unit μM) was greater than 10 µM in each case.
Regarding `CC(O)c1nccc(-c2cnc([C@@H]3CC4(CC4)c4cc(-c5c(-n6cnnn6)ccc(Cl)c5F)cc(=O)n43)[nH]2)c1F` (single isomer, unassigned) [Example 5, (3'S)-7′-(3-Chloro-2-fluoro-6-(1H-tetrazol-1-yl)phenyl)-3′-(5-(3-fluoro-2-(1-hydroxyethyl)pyridin-4-yl)-1H-imidazol-2-yl)-2′,3′-dihydro-5′H-spiro[cyclopropane-1,1′-indolizin]-5′-one], the 50% inhibitory concentration (IC50) was greater than 0.1 µM at Factor XIa (values in nM) and greater than 1 µM at human plasma kallikrein (unit μM).
Turning to `COC(=O)Nc1ccc(-c2cnc([C@@H]3C[C@@H](C)c4nc(-c5c(-n6cnnn6)ccc(Cl)c5F)cc(=O)n43)[nH]2)cn1` (stereo in doubt) [Example 118, Methyl (5-(2-((6*S,8*R)-2-(3-Chloro-2-fluoro-6-(1H-tetrazol-1-yl)phenyl)-8-methyl-4-oxo-4,6,7,8-tetrahydropyrrolo[1,2-a]pyrimidin-6-yl)-1H-imidazol-5-yl)pyridin-2-yl)carbamate], the results for the IC50 at Factor XIa (values in nM) and on human plasma kallikrein (values in nM) were 0.0079 µM and 0.015 µM, respectively.
As to `C[C@@H]1C[C@@H](c2ncc(-c3ccc(NC(=O)C4CC4)nc3)[nH]2)n2c1nc(-c1c(-n3cnnn3)ccc(Cl)c1F)cc2=O` (stereo in doubt) [Example 122, N-(5-(2-((6*S,8*R)-2-(3-Chloro-2-fluoro-6-(1H-tetrazol-1-yl)phenyl)-8-methyl-4-oxo-4,6,7,8-tetrahydropyrrolo[1,2-a]pyrimidin-6-yl)-1H-imidazol-5-yl)pyridin-2-yl)cyclopropanecarboxamide], the 50% inhibitory concentration (IC50) on Factor XIa (values in nM) was 0.095 µM; at human plasma kallikrein (unit μM) it was 5.6 µM.
For `C[C@H]1C[C@H](c2ncc(-c3ccc(N)nc3Cl)[nH]2)n2c1cc(-c1c(-n3cnnn3)ccc(Cl)c1F)cc2=O` (relative stereo) [Example 37, (1*S,3*R)-3-(5-(6-Amino-2-chloropyridin-3-yl)-1H-imidazol-2-yl)-7-(3-chloro-2-fluoro-6-(1H-tetrazol-1-yl)phenyl)-1-methyl-2,3-dihydroindolizin-5(1H)-one] the same measures were 0.283 µM and 7.8 µM.
Take `C[C@H]1C[C@@H](c2ncc(-c3ccnc(C(F)(F)F)c3)[nH]2)n2c1nc(-c1c(-n3cnnn3)ccc(Cl)c1F)cc2=O` (relative stereo) [Example 148, (6S*,8S*)-2-(3-Chloro-2-fluoro-6-(1H-tetrazol-1-yl)phenyl)-8-methyl-6-(5-(2-(trifluoromethyl)pyridin-4-yl)-1H-imidazol-2-yl)-7,8-dihydropyrrolo[1,2-a]pyrimidin-4(6H)-one]: the IC50 came out at 0.0476 µM at Factor XIa (values in nM) and 0.094 µM on human plasma kallikrein (values in nM).
The matching figures for `Nc1nsc2cc(-c3cnc([C@@H]4CC5(CC5)c5nc(-c6c(-n7cnnn7)ccc(Cl)c6F)cc(=O)n54)[nH]3)ccc12` [Example 81, (S)-6′-(5-(3-Aminobenzo[d]isothiazol-6-yl)-1H-imidazol-2-yl)-2′-(3-chloro-2-fluoro-6-(1H-tetrazol-1-yl)phenyl)-6′,7′-dihydro-4′H-spiro[cyclopropane-1,8′-pyrrolo[1,2-a]pyrimidin]-4′-one]: 0.0006 µM and 0.0009 µM.
For `C[C@H]1C[C@@H](c2[nH]c(-c3ccc(N)nc3F)nc2F)n2c1cc(-c1c(-n3cnnn3)ccc(Cl)c1F)cc2=O` [Example 34, (1S,3S)-3-(2-(6-Amino-2-fluoropyridin-3-yl)-4-fluoro-1H-imidazol-5-yl)-7-(3-chloro-2-fluoro-6-(1H-tetrazol-1-yl)phenyl)-1-methyl-2,3-dihydroindolizin-5(1H)-one] the same measures were 0.0001 µM and 0.0073 µM.
For `Nc1ccc(-c2cnc(C3CCCc4cc(-c5c(-n6cnnn6)ccc(Cl)c5F)cc(=O)n43)[nH]2)c(F)n1` (single isomer, unassigned) [Cmpd (III), (*S)-6-(5-(6-amino-2-fluoropyridin-3-yl)-1H-imidazol-2-yl)-2-(3-chloro-2-fluoro-6-(1H-tetrazol-1-yl)phenyl)-6,7,8,9-tetrahydro-4H-quinolizin-4-one] the same measures were 0.0012 µM and 0.1 µM.
`C[C@H]1C[C@@H](c2ncc(-c3cnc(N)s3)[nH]2)n2c1cc(-c1c(-n3cnnn3)ccc(Cl)c1F)cc2=O` [Example 23, (1S,3S)-3-(5-(2-Aminothiazol-5-yl)-1H-imidazol-2-yl)-7-(3-chloro-2-fluoro-6-(1H-tetrazol-1-yl)phenyl)-1-methyl-2,3-dihydroindolizin-5(1H)-one]: the IC50 was 0.005 µM at Factor XIa (values in nM) and 0.24 µM at human plasma kallikrein (values in nM).
The matching figures for `CO[C@@H]1C[C@H](c2ncc(-c3ccc(N)nc3F)[nH]2)n2c1cc(-c1c(-n3cnnn3)ccc(Cl)c1F)cc2=O` (relative stereo) [Example 151, (1*R,3*R)-3-(5-(6-Amino-2-fluoropyridin-3-yl)-1H-imidazol-2-yl)-7-(3-chloro-2-fluoro-6-(1H-tetrazol-1-yl)phenyl)-1-methoxy-2,3-dihydroindolizin-5(1H)-one]: 0.0003 µM and 0.014 µM.
`CC1C[C@H](c2nc(-c3cnc(N)cn3)c[nH]2)n2c1nc(-c1c(-n3cc(C(F)(F)F)nn3)ccc(Cl)c1F)cc2=O` (stereo partly drawn) [Example 79, (6R)-6-(4-(5-aminopyrazin-2-yl)-1H-imidazol-2-yl)-2-(3-chloro-2-fluoro-6-(4-(trifluoromethyl)-1H-1,2,3-triazol-1-yl)phenyl)-8-methyl-7,8-dihydropyrrolo[1,2-a]pyrimidin-4(6H)-one]: the results for the IC50 on Factor XIa (values in nM) and on human plasma kallikrein (values in nM) were 0.0635 µM and 0.324 µM, respectively.
For `COc1cc(-c2cnc([C@@H]3C[C@@H](C)c4nc(-c5c(-n6cnnn6)ccc(Cl)c5F)cc(=O)n43)[nH]2)ccn1` (stereo in doubt) [Example 98, (6*S,8*R)-2-(3-Chloro-2-fluoro-6-(1H-tetrazol-1-yl)phenyl)-6-(5-(2-methoxypyridin-4-yl)-1H-imidazol-2-yl)-8-methyl-7,8-dihydropyrrolo[1,2-a]pyrimidin-4(6H)-one] the same measures were 0.143 µM and 0.135 µM.
Take `C[C@@H]1C[C@H](c2ncc(-c3cn[nH]c3)[nH]2)n2c1nc(-c1c(-n3cnnn3)ccc(Cl)c1F)cc2=O` (stereo in doubt) [Example 108, (6*R,8*R)-6-(5-(1H-Pyrazol-4-yl)-1H-imidazol-2-yl)-2-(3-chloro-2-fluoro-6-(1H-tetrazol-1-yl)phenyl)-8-methyl-7,8-dihydropyrrolo[1,2-a]pyrimidin-4(6H)-one]: the IC50 was found to be 0.0903 µM on Factor XIa (values in nM) and 7.1 µM on human plasma kallikrein (unit μM).
Turning to `Cc1cc(-c2cnc([C@H]3C[C@H](C)c4cc(-c5c(-n6cnnn6)ccc(Cl)c5F)cc(=O)n43)[nH]2)ccn1` (stereo in doubt) [Example 42, (1*S,3*R)-7-(3-Chloro-2-fluoro-6-(1H-tetrazol-1-yl)phenyl)-1-methyl-3-(5-(2-methylpyridin-4-yl)-1H-imidazol-2-yl)-2,3-dihydroindolizin-5(1H)-one], the IC50 was determined as 0.0033 µM at Factor XIa (values in nM) and 0.033 µM at human plasma kallikrein (values in nM).
The matching figures for `COC(=O)Nc1ccc(-c2cnc([C@H]3C[C@@H](C)c4nc(-c5c(-n6cnnn6)ccc(Cl)c5F)cc(=O)n43)[nH]2)cc1` (stereo in doubt) [Example 127, Methyl (4-(2-((6*R,8*R)-2-(3-Chloro-2-fluoro-6-(1H-tetrazol-1-yl)phenyl)-8-methyl-4-oxo-4,6,7,8-tetrahydropyrrolo[1,2-a]pyrimidin-6-yl)-1H-imidazol-5-yl)phenyl)carbamate]: 0.19 µM and 0.723 µM.
For `C[C@H]1C[C@@H](c2ncc(-c3ccc4nn(C)cc4c3)[nH]2)n2c1cc(-c1c(-n3cnnn3)ccc(Cl)c1F)cc2=O` (stereo in doubt) [Example 46, (1*S,3*S)-7-(3-Chloro-2-fluoro-6-(1H-tetrazol-1-yl)phenyl)-1-methyl-3-(5-(2-methyl-2H-indazol-5-yl)-1H-imidazol-2-yl)-2,3-dihydroindolizin-5(1H)-one] the same measures were 0.431 µM and 0.488 µM.
For `CNC(=O)c1cc(-c2cnc([C@@H]3C[C@H](C)c4cc(-c5c(-n6cnnn6)ccc(Cl)c5F)cc(=O)n43)[nH]2)ccn1` [Example 13, 4-(2-((1S,3S)-7-(3-Chloro-2-fluoro-6-(1H-tetrazol-1-yl)phenyl)-1-methyl-5-oxo-1,2,3,5-tetrahydroindolizin-3-yl)-1H-imidazol-5-yl)-N-methylpicolinamide] the same measures were 0.0127 µM and 0.0369 µM.
Consider `Cc1c(-c2cnc([C@H]3C[C@H](C)c4cc(-c5c(-n6cnnn6)ccc(Cl)c5F)cc(=O)n43)[nH]2)ccnc1C#N` (relative stereo) [Example 31, 4-(2-((1S*,3R*)-7-(3-Chloro-2-fluoro-6-(1H-tetrazol-1-yl)phenyl)-1-methyl-5-oxo-1,2,3,5-tetrahydroindolizin-3-yl)-1H-imidazol-5-yl)-3-methylpicolinonitrile], for which the IC50 on Factor XIa (values in nM) is 0.25 µM; at human plasma kallikrein (values in nM) it was 0.635 µM.

These data come from patent publication US20230097157A1, “Bicyclic Pyridin-2-one and pyrimidin-4-one Derivatives Useful As a Factor XIa Inhibitors” (Janssen Pharmaceutica NV, priority 2021, published 2023).
